The values below come from ChEMBL document CHEMBL1132238, “A peptide agonist acts by occupation of a monomeric G protein-coupled receptor: dual sites of covalent attachment to domains near TM1 and TM7 of the same molecule make biologically significant domain-swapped dimerization unlikely” (J Med Chem, 1999).

For orientation: EC50 means the concentration needed to bring the measured effect to its halfway point.

The target in this test is T1, Cholecystokinin receptor (Homo sapiens, UniProt P32239+P32238).
T1 sequence (P32239 whole entry): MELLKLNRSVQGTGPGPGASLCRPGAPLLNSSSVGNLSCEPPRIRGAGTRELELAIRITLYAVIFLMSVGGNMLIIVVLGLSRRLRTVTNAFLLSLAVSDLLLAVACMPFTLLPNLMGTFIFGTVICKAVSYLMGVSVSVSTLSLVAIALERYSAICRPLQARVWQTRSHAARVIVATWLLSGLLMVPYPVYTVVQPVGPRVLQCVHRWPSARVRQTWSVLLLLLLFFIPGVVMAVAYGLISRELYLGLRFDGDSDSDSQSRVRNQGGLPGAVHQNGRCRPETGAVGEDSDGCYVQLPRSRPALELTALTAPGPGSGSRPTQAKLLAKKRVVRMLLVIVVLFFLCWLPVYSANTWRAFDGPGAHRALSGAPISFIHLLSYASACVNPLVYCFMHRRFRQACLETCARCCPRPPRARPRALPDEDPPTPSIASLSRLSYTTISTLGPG
T1 sequence (P32238 whole entry): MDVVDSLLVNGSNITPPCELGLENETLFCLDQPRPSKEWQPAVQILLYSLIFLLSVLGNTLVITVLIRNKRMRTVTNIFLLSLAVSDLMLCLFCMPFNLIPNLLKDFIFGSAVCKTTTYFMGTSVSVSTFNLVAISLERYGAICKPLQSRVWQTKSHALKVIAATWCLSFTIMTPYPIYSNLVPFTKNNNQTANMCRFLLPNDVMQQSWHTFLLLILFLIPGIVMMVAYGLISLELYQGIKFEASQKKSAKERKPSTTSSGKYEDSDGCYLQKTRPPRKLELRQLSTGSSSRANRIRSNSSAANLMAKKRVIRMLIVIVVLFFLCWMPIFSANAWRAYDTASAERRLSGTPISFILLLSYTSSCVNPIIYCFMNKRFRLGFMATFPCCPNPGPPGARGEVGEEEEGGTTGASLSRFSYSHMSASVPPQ
In words: Ability to stimulate intracellular calcium response was determined using CCK receptor-bearing chinese hamster ovary cell line. Type of test: functional, cell-based, Cricetulus griseus. In general terms: Calcium flux is commonly read through the fluorescence of an indicator in the cells.
`CCCC[C@H](NC(=O)[C@H](Cc1c[nH]c2ccccc12)NC(=O)[C@H](Cc1ccc(C(=O)c2ccccc2)cc1)NC(=O)[C@H](CCCC)NC(=O)[C@H](Cc1ccc(OS(=O)(=O)O)cc1)NC(=O)[C@H](CC(=O)O)NC(=O)CNC(=O)[C@H](N)Cc1ccc(O)cc1)C(=O)N[C@@H](CC(=O)O)C(=O)N[C@@H](Cc1ccccc1)C(N)=O`: the half-maximal effective concentration (EC50) was determined as 0.028 µM. In the case of `CCCC[C@H](NC(=O)[C@H](Cc1c[nH]c2ccccc12)NC(=O)[C@H](Cc1ccc(C(=O)c2ccccc2)cc1)NC(=O)[C@H](CCCC)NC(=O)[C@H](Cc1ccc(OS(=O)(=O)O)cc1)NC(=O)[C@H](CC(=O)O)NC(=O)CNC(=O)[C@H](N)Cc1ccc(O)cc1)C(=O)N[C@@H](CC(=O)O)C(=O)N[C@@H](Cc1ccc(C(=O)c2ccccc2)cc1)C(N)=O` it was 0.15 µM.

As to `CCCC[C@H](NC(=O)[C@H](Cc1ccc(OS(=O)(=O)O)cc1)NC(=O)[C@H](CC(=O)O)NC(=O)CNC(=O)[C@H](N)Cc1ccc(O)cc1)C(=O)NCC(=O)N[C@@H](Cc1c[nH]c2ccccc12)C(=O)N[C@@H](CCCC)C(=O)N[C@@H](CC(=O)O)C(=O)N[C@@H](Cc1ccc(C(=O)c2ccccc2)cc1)C(N)=O`, the EC50 worked out at 0.28 µM.
